Data taken from the NIST ThermoML archive (doi:10.1016/j.jct.2006.07.018).

Test: molar heat capacity at constant pressure; mn = molality of the nth substance listed, in mol/kg
Settings: 350 kPa, Liquid, high-precision DSC

CSCC[C@H](N)C(=O)O [L-methionine] + O
molar heat capacity at constant pressure [J/K/mol]
Settings	m1 = 0.0125	m1 = 0.025	m1 = 0.05	m1 = 0.0997	m1 = 0.1501	m1 = 0.1929
278.15 K	75.75	75.8	75.86	76.01	76.17	76.3
283.15 K	75.58	75.64	75.71	75.87	76.04	76.19
288.15 K	75.47	75.53	75.6	75.78	75.96	76.12
293.15 K	75.39	75.46	75.53	75.72	75.92	76.08
298.15 K	75.34	75.41	75.49	75.69	75.89	76.06
303.15 K	75.31	75.38	75.46	75.67	75.88	76.05
308.15 K	75.3	75.37	75.45	75.66	75.88	76.05
313.15 K	75.3	75.37	75.46	75.67	75.9	76.06
318.15 K	75.31	75.38	75.47	75.68	75.92	76.09
323.15 K	75.33	75.4	75.5	75.71	75.95	76.12
328.15 K	75.37	75.44	75.53	75.75	75.99	76.16
333.15 K	75.41	75.48	75.57	75.79	76.03	76.21
338.15 K	75.45	75.53	75.62	75.84	76.08	76.26
343.15 K	75.51	75.59	75.68	75.9	76.13	76.32
348.15 K	75.58	75.65	75.75	75.96	76.2	76.38
353.15 K	75.65	75.72	75.82	76.03	76.27	76.46
358.15 K	75.73	75.8	75.9	76.11	76.35	76.54
363.15 K	75.82	75.88	75.98	76.2	76.43	76.62
368.15 K	75.91	75.98	76.08	76.29	76.53	76.71
373.15 K	76.01	76.08	76.18	76.39	76.63	76.81
378.15 K	76.13	76.19	76.29	76.5	76.74	76.92
383.15 K	76.24	76.31	76.41	76.62	76.85	77.03
388.15 K	76.38	76.45	76.54	76.74	76.98	77.15
393.15 K	76.52	76.6	76.68	76.88	77.11	77.28
